Laboratory results taken from patent publication US9597407B2, “Targeted antimicrobial moieties” (C3 Jian, Inc., priority 2009, dated 2017).
“Also recorded” adds a separate entry of the source. Ends that are not written are not given here.

How the values were obtained:
[1] = system: bacteria; test: Binding of targeting peptides to microorganisms (Table 3); conditions: preferably 1x PBS; for Target(s) (microorganisms bound by the targeting peptide) / Target(s) (microorganism bound by the targeting peptide): peptide binding in aqueous buffers that varied depending on peptide solubility
[2] = system: microorganisms; test: Morphology, biofilm and growth disruption by peptides (Table 5); type: cell-based; design: key: A: Peptide aggregates; B: Less hyphal formation; Clumps; Diffuse clumps and small polyps; F: Diffuse growth; H: Thin; I: Growth inhibition; Microcolony formation; Rippled; Small polyps; Thick; W: Halo formation on top, microlonies on bottom
Text: In certain embodiments peptides that induce alterations in phenotype or other biological activities can also be used as antimicrobial effector moieties.

[3] = system: microorganisms; test: Peptide activities: binding, antimicrobial, growth or phenotype altering (Table 8)
Text: In certain embodiments, peptides described herein can have multiple activities. Thus for example, a peptide can have both binding/targeting activity and antimicrobial activity. Such peptides can be used, e.g., in a chimeric construct, for any or all of these properties. Thus, for example, a peptide designated “B” in Table 8 can be used as a targeting peptide. If it is also designated G or M it can also be used for antimicrobial activity.

[4] = microorganism the targeting peptide binds, binding in aqueous buffers that varied with peptide solubility
[5] = microorganism bound by the targeting peptide, binding in aqueous buffers chosen by peptide solubility

Row | Substance | Organism, effect ([2]; MRSA) | Activities [3] | Target(s) (microorganisms bound by the targeting peptide) [1] | Organism, effect (morphology, biofilm and growth disruption) ([2]; S. pneumoniae) | also measured
1 | PF-031 (MPHHSTTSSRIVVPAHQSNMASTPNLSITP; Peptide with targeting and/or antimicrobial activity) | MRSA (M) | G B | – | – | Target(s) [1, 4]: M. luteus; also recorded: C. albicans
2 | PF-542 (KKDNPSLNDQDKNAVLNLLALAK; Peptide with targeting and/or antimicrobial activity) | – | G B | C. jeikeium | S. pneumoniae (H) | –
3 | PF-518 (SFYSKYSRYIDNLAGAIFLFF; Peptide with targeting and/or antimicrobial activity) | – | G B | S. epidermidis and E. coli and P. aeruginosa and C. albicans and MRSA and S. pneumoniae and E. faecalis | S. pneumoniae (M) | Organism, effect (morphology, biofilm and growth disruption) ([2]; E. coli): E. coli (R); Organism, effect (morphology, biofilm and growth disruption) ([2]; E. faecalis): E. faecalis (C); Organism, effect (morphology, biofilm and growth disruption) ([2]; MRSA): MRSA (C); Organism, effect (morphology, biofilm and growth disruption) ([2]; S. epidermidis): S. epidermidis (C)
4 | PF-462 (KNKTDTL; Peptide with targeting and/or antimicrobial activity) | – | G B | E. faecalis; also recorded: C. jeikeium | S. pneumoniae (H) | –
5 | PF-017 (ESIIE; Peptide with targeting and/or antimicrobial activity) | MRSA (M) | G B | – | – | Target(s) [1, 4]: E. coli
6 | PF-456 (TCVKPRTIN; Peptide with targeting and/or antimicrobial activity) | – | G B | C. albicans and MRSA and E. faecalis and C. jeikeium and C. jejuni | – | Organism, effect (morphology, biofilm and growth disruption) ([2]; C. jejuni): C. jejuni (A); Organism, effect (morphology, biofilm and growth disruption) ([2]; E. faecalis): E. faecalis (A)
7 | PF-625 (chain 1 SDSTNNARTRKKARDVTTKDIDK; chain 2 SDSTNNARTRKKARDVTTKDIDK; Peptide with targeting and/or antimicrobial activity) | – | G B | – | S. pneumoniae (H) | Target(s) (microorganism bound by the targeting peptide) [1]: S. epidermidis; also recorded: M. luteus; also recorded: S. pneumoniae; also recorded: C. jeikeium
8 | PF-559 (SRPGKPGGVSIDVSRDRQDILSNYP; Peptide with targeting and/or antimicrobial activity) | – | G B | S. epidermidis; also recorded: M. luteus; also recorded: C. albicans; also recorded: C. jeikeium; also recorded: C. jejuni | – | Organism, effect (morphology, biofilm and growth disruption) ([2]; B. subtilis): B. subtilis (C); Organism, effect (morphology, biofilm and growth disruption) ([2]; C. jejuni): C. jejuni (A)
9 | PF-363 (SMLSVTVMCLMHASVAANQAMEKKV; Peptide with targeting and/or antimicrobial activity) | MRSA (H) | G B | – | – | Target(s) [1, 5]: B. subtilis; also recorded: E. coli; also recorded: P. aeruginosa; also recorded: C. albicans; also recorded: S. pneumoniae; also recorded: E. faecalis; Organism, effect ([2]; C. jejuni): C. jejuni (D); Organism, effect ([2]; E. coli): E. coli (C); Organism, effect ([2]; E. faecalis): E. faecalis (D); Organism, effect ([2]; S. epidermidis): S. epidermidis (S); Organism, effect ([2]; S. pneumoniae): S. pneumoniae (R)
10 | PF-467 (YYKDYFKEI; Peptide with targeting and/or antimicrobial activity) | – | G B | MRSA and E. faecalis and C. jeikeium and C. jejuni | S. pneumoniae (H) | –
11 | PF-513 (SNGVGLGVGIGSGIRF-NH2) | – | G B | C. albicans | S. pneumoniae (M) | –
12 | PF-549 (TGIGPIARPIEHGLDS; Peptide with targeting and/or antimicrobial activity) | – | G B | E. coli; also recorded: C. albicans; also recorded: S. pneumoniae; also recorded: C. jeikeium | – | Organism, effect (morphology, biofilm and growth disruption) ([2]; B. subtilis): B. subtilis (D); Organism, effect (morphology, biofilm and growth disruption) ([2]; MRSA): MRSA (C)
13 | PF-369 (MSEAVNLLRGARYSQRYAKNQVPYEVIIEK; Peptide with targeting and/or antimicrobial activity) | MRSA (H) | G B | – | – | Target(s) [1, 5]: B. subtilis; also recorded: B. fragilis; also recorded: E. coli; also recorded: P. aeruginosa; also recorded: C. albicans; also recorded: S. pneumoniae; also recorded: C. jeikeium; also recorded: C. jejuni; Organism, effect ([2]; E. coli): E. coli (R); Organism, effect ([2]; E. faecalis): E. faecalis (C); Organism, effect ([2]; S. epidermidis): S. epidermidis (S)
14 | PF-024 (DLRKAK; Peptide with targeting and/or antimicrobial activity) | MRSA (M) | G B | – | – | Target(s) [1, 4]: M. luteus and C. albicans and MRSA and E. faecalis and C. jeikeium; Organism, effect ([2]; S. epidermidis): S. epidermidis (D)
15 | PF-373 (HFYLLFER; Peptide with targeting and/or antimicrobial activity) | MRSA (M) | G B | – | – | Target(s) [1, 5]: S. epidermidis and E. coli and P. aeruginosa and C. albicans and MRSA and E. faecalis and C. jejuni; Organism, effect ([2]; S. epidermidis): S. epidermidis (M)
16 | PF-C095 (LLALNMNEDTYYFELFFIFDNQNKKWLIFDLKERG; Peptide with targeting and/or antimicrobial activity) | – | G B | – | – | Target(s) (microorganism bound by the targeting peptide) [1]: A. naeslundii; also recorded: F. nucleatum; also recorded: P. gingivalis; also recorded: S. mutans; Organism, effect (morphology, biofilm and growth disruption) ([2]; F. nucleatum): F. nucleatum (T)
17 | PF-552 (ELDKADAALGPAKNLAPLDVINRS; Peptide with targeting and/or antimicrobial activity) | – | G B | S. pneumoniae | – | Organism, effect (morphology, biofilm and growth disruption) ([2]; B. subtilis): B. subtilis (D)
18 | PF-045 (LDINDYRSTY; Peptide with targeting and/or antimicrobial activity) | MRSA (S) | G B | – | – | Target(s) [1, 4]: S. epidermidis; also recorded: E. coli; also recorded: E. faecalis; also recorded: C. jejuni
19 | PF-557 (AANKAREQAAAEAKRKAEEQAR; Peptide with targeting and/or antimicrobial activity) | – | G B | S. pneumoniae | – | Organism, effect (morphology, biofilm and growth disruption) ([2]; B. subtilis): B. subtilis (D)
20 | PF-C058 (FETGFGDGYYMSLWGLNEKDEVCKVVIPFINPELID; Peptide with targeting and/or antimicrobial activity) | – | G B | – | – | Target(s) (microorganism bound by the targeting peptide) [1]: A. naeslundii; also recorded: F. nucleatum; also recorded: P. gingivalis; also recorded: S. mutans; Organism, effect (morphology, biofilm and growth disruption) ([2]; S. mutans): S. mutans (F)
21 | PF-762 (chain 1 PAPAPSAPAPAPEQPEQPA; chain 2 PAPAPSAPAPAPEQPEQPA; Peptide with targeting and/or antimicrobial activity) | – | G B | – | S. pneumoniae (H) | Target(s) (microorganism bound by the targeting peptide) [1]: M. luteus; also recorded: C. albicans
